Measured values from US5783703A, “Sulfur-containing compounds method for their use and prodction” (Lederle (Japan), Ltd., priority 1993, dated 1998).
In brackets after ≈: the same amount, converted by molar mass.

Experiments:
Test in all cases: Antibacterial activity, agar plate dilution method (MIC), Experimental Example 2
Type in all cases: cell-based
[1] = tested on: B. subtilis ATCC 6633; conditions: Bacillus subtilis, ATCC6633, MH agar, 37° C., 18 hours
Description: (§1) There was measured, by the following method, the antibacterial activity of the compound (16) which had been produced in Example 14 with use of the compound (I) of the present invention as a synthesis intermediate.
(§2) There was employed the agar plate dilution method in accordance with the standard method of the Japanese Chemotherapy Society [Chemotherapy, vol. 29, 76-79 (1981)]. Concretely, a Mueller-Hinton (MH) agar liquid medium containing the test microorganism was cultured overnight at 37° C., and the resultant culture medium was diluted with a buffered saline gelatin (BSG) solution so that the concentration of the test microorganism might be about […]. Then, with use of a microplanter, this diluted solution was inoculated each about 5 μl on MH agar media containing the test compounds. Thus, the minimum concentration of the test compound in which no growth of the test microorganism was observed after the incubation at 37° C. for 18 hours was regarded as Minimum Inhibitory Concentration (MIC). Incidentally, all of the test organisms used here were standard strains.

[2] = tested on: E. aerogenes ATCC 13048; conditions: Klebsiella aerogenes, ATCC13048, MH agar, 37° C., 18 hours
Description: as §1, §2

[3] = tested on: E. cloacae 963; conditions: Enterobacter cloacae, MH agar, 37° C., 18 hours
Description: as §1, §2

[4] = tested on: E. coli K-12 C600; conditions: Escherichia coli, K12C600, MH agar, 37° C., 18 hours
Description: as §1, §2

[5] = tested on: E. coli NIHJ JC-2; conditions: Escherichia coli, NIHJJC2, MH agar, 37° C., 18 hours
Description: as §1, §2

[6] = tested on: K. pneumoniae PCI-602; conditions: Klebsiella pneumoniae, PCI602, MH agar, 37° C., 18 hours
Description: as §1, §2

[7] = tested on: M. luteus ATCC 9341; conditions: Micrococcus luteus, ATCC9341, MH agar, 37° C., 18 hours
Description: as §1, §2

[8] = tested on: M. morganii IFO 3848; conditions: Morganella morganii, IFO3848, MH agar, 37° C., 18 hours
Description: as §1, §2

[9] = tested on: P. mirabilis IFO 3849; conditions: Proteus mirabilis, IFO3849, MH agar, 37° C., 18 hours
Description: as §1, §2

[10] = tested on: P. rettgeri IFO 3850; conditions: Providencia rettgeri, IFO3850, MH agar, 37° C., 18 hours
Description: as §1, §2

[11] = tested on: P. vulgaris HX-19; conditions: Proteus vulgaris, HX19, MH agar, 37° C., 18 hours
Description: as §1, §2

[12] = tested on: P. vulgaris OX-19; conditions: Proteus vulgaris, OX19, MH agar, 37° C., 18 hours
Description: as §1, §2

[13] = tested on: S. aureus FDA209P JC-1; conditions: Staphylococcus aureus, MH agar, 37° C., 18 hours
Description: as §1, §2

[14] = tested on: S. aureus MS353; conditions: Staphylococcus aureus, MH agar, 37° C., 18 hours
Description: as §1, §2

[15] = tested on: S. aureus Terajima; conditions: Staphylococcus aureus, MH agar, 37° C., 18 hours
Description: as §1, §2

[16] = tested on: S. enteritidis G14; conditions: Salmonella enterica, MH agar, 37° C., 18 hours
Description: as §1, §2

[17] = tested on: S. marcescens IAM 1184; conditions: Serratia marcescens, IAM1184, MH agar, 37° C., 18 hours
Description: as §1, §2

[18] = tested on: S. paratyphi 1015; conditions: Salmonella enterica, 18 h
Description: as §1, §2

[19] = tested on: S. pyogenes Cook; conditions: Streptococcus pyogenes, MH agar, 37° C., 18 hours
Description: as §1, §2

[20] = tested on: S. schottmuelleri 8006; conditions: MH agar, 37° C., 18 hours
Description: as §1, §2

[21] = tested on: S. typhi 901; conditions: Salmonella enterica, 18 h
Description: as §1, §2

[22] = tested on: S. typhimurium 11D971; conditions: Salmonella enterica, MH agar, 37° C., 18 hours
Description: as §1, §2

Structure (SMILES): C[C@@H](O)[C@H]1C(=O)N2C(C(=O)O)=C(SC3CN(C4=NCCS4)C3)[C@H](C)[C@H]12 [compound (16), (1R, 5S, 6S)-2-[1-(1,3-thiazolin-2-yl)azetidin-3-yl]thio-6-[(R)-1-hydroxyethyl]-1-methylcarbapen-2-em-3-carboxylate]
- MIC [1]: 0.025 µg/mL (≈ 0.0652 µM)
- MIC [2]: 0.1 µg/mL (≈ 0.261 µM)
- MIC [3]: 0.05 µg/mL (≈ 0.13 µM)
- MIC [4]: 0.1 µg/mL (≈ 0.261 µM)
- MIC [5]: 0.013 µg/mL (≈ 0.0339 µM)
- MIC [6]: 0.013 µg/mL (≈ 0.0339 µM)
- MIC [7]: 0.2 µg/mL (≈ 0.522 µM)
- MIC [8]: 0.39 µg/mL (≈ 1.02 µM)
- MIC [9]: 0.39 µg/mL (≈ 1.02 µM)
- MIC [10]: 0.39 µg/mL (≈ 1.02 µM)
- MIC [11]: 0.1 µg/mL (≈ 0.261 µM)
- MIC [12]: 0.1 µg/mL (≈ 0.261 µM)
- MIC [13]: 0.013 µg/mL (≈ 0.0339 µM)
- MIC [14]: ≤ 0.006 µg/mL
- MIC [15]: ≤ 0.006 µg/mL
- MIC [16]: 0.39 µg/mL (≈ 1.02 µM)
- MIC [17]: 0.05 µg/mL (≈ 0.13 µM)
- MIC [18]: 0.05 µg/mL (≈ 0.13 µM)
- MIC [19]: ≤ 0.006 µg/mL
- MIC [20]: 0.025 µg/mL (≈ 0.0652 µM)
- MIC [21]: ≤ 0.006 µg/mL
- MIC [22]: 0.025 µg/mL (≈ 0.0652 µM)
